Target: full-length human recombinant BTK (Homo sapiens (Human), UniProt Q06187)
Experiment: Inhibition of Btk enzymatic activity (biochemical enzyme assay, Caliper)
Details: 30° C., 60 minutes
Procedure: The inhibitory activity of the present compounds against Btk was assessed in a biochemical enzyme assay. Assay plates in 384 well format were prepared with 8-point serial dilutions for the test compounds on a Thermo CatX workstation equipped with a Innovadyne Nanodrop Express. The assay plates were prepared by addition of 50 nl per well of compound solution in 90% DMSO. The kinase reactions were started by stepwise addition of 4.5 μl per well of peptide/ATP-solution (4 μM FITC-Ahx-[…]-NH2, 164 μM ATP) in kinase buffer (50 mM HEPES, pH 7.5, 1 mM DTT, 0.02% Tween20, 0.02% BSA, 0.6% DMSO, 10 mM beta-glycerophosphate, and 10 μM sodium orthovanadate, 18 mM MgCl2, 1 mM MnCl2) and 4.5 μl per well of enzyme solution (6.4 nM full-length human recombinant BTK) in kinase buffer. Kinase reactions were incubated at 30° C. for 60 minutes and subsequently terminated by addition of 16 μl per well of stop solution (100 mM HEPES pH 7.5, 5% DMSO, 0.1% Caliper coating reagent, 10 mM EDTA, and 0.015% Brij35). Kinase reactions were analyzed on a Caliper LC3000 workstation by separating phosphorylated and unphosphorylated peptides and kinase activities were calculated from the amounts of newly formed phospho-peptide. Inhibition data were calculated by comparison to control reactions without enzyme (100% inhibition) and without inhibitors (0% inhibition). The concentration of inhibitor required for 50% inhibition (IC50) was calculated from the inhibition in response to inhibitor concentrations.

Sequence of full-length human recombinant BTK (Q06187 whole entry): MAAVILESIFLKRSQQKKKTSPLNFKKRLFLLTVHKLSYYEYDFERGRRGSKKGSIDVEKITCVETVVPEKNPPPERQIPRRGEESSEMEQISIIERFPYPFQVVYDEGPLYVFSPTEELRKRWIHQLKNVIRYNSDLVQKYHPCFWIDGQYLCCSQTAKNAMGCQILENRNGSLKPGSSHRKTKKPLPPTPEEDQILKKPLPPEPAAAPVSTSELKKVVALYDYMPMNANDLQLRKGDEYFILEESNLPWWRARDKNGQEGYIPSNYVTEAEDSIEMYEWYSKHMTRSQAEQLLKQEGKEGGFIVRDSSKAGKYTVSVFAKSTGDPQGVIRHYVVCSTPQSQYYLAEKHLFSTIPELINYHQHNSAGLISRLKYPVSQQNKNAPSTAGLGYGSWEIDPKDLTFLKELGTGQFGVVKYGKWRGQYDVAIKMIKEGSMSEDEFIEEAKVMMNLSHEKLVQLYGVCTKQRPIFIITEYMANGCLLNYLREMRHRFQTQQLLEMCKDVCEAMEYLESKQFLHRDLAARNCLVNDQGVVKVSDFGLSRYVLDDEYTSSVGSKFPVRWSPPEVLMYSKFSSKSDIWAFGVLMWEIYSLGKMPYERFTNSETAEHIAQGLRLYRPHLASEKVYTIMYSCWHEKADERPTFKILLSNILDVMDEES

Compound	IC50 [nM]
CC(=O)OCC(=O)N1CC=C(c2cc3c(-c4cc(F)cc(NC(=O)c5ccc(S(F)(F)(F)(F)F)cc5)c4C)ncnc3[nH]2)CC1 [Example 35, Acetic acid 2-[4-(4-{5-fluoro-2-methyl-3-[4-(pentafluoro-sulfanyl)-benzoylamino]-phenyl}-7H-pyrrolo[2,3-d]pyrimidin-6-yl)-3,6-dihydro-2H-pyridin-1-yl]-2-oxo-ethyl ester]	14
Cc1c(NC(=O)c2ccc(S(F)(F)(F)(F)F)cc2)cc(F)cc1-c1ncnc2[nH]c(C3=CCN(C(=O)CO)CC3)cc12 [Example 36, N-(5-Fluoro-3-{6-[1-(2-hydroxy-acetyl)-1,2,3,6-tetrahydro-pyridin-4-yl]-7H-pyrrolo[2,3-d]pyrimidin-4-yl}-2-methyl-phenyl)-4-(pentafluoro-sulfanyl)-benzamide]	4
CN(C)C(=O)N1CC=C(c2cc3c(-c4cccc(NC(=O)c5ccc(C(C)(C)C)cc5)c4CO)ncnc3[nH]2)CC1 [Example 37, 4-{4-[3-(4-tert-Butyl-benzoylamino)-2-hydroxymethyl-phenyl]-7H-pyrrolo[2,3-d]pyrimidin-6-yl}-3,6-dihydro-2H-pyridine-1-carboxylic acid dimethylamide]	26
Cc1c(NC(=O)c2ccc(C(C)(C)C)cc2)cc(F)cc1-c1ncnc2[nH]c(C3=CCNCC3)cc12 [Example 40, 4-tert-Butyl-N-{5-fluoro-2-methyl-3-[6-(1,2,3,6-tetrahydro-pyridin-4-yl)-7H-pyrrolo[2,3-d]pyrimidin-4-yl]-phenyl}-benzamide]	19
Cc1c(NC(=O)c2ccc(C(C)(C)C)cc2)cc(F)cc1-c1ncnc2[nH]c(C3=CCN(C(=O)N(C)C)CC3)cc12 [Example 41, 4-{4-[3-(4-tert-Butyl-benzoylamino)-5-fluoro-2-methyl-phenyl]-7H-pyrrolo[2,3-d]pyrimidin-6-yl}-3,6-dihydro-2H-pyridine-1-carboxylic acid dimethylamide]	23
Cc1c(NC(=O)c2ccc(C(C)(C)C)cc2)cc(F)cc1-c1ncnc2[nH]c(C3=CCN(S(C)(=O)=O)CC3)cc12 [Example 42, 4-tert-Butyl-N-{5-fluoro-3-[6-(1-methanesulfonyl-1,2,3,6-tetrahydro-pyridin-4-yl)-7H-pyrrolo[2,3-d]pyrimidin-4-yl]-2-methyl-phenyl}-benzamide]	30
Cc1c(NC(=O)c2ccc(C(C)(C)C)cc2)cc(F)cc1-c1ncnc2[nH]c(C3=CCN(S(=O)(=O)N(C)C)CC3)cc12 [Example 43, 4-tert-Butyl-N-{3-[6 (1 dimethylsulfamoyl-1,2,3,6-tetrahydro-pyridin-4-yl)-7H-pyrrolo[2,3-d]pyrimidin-4-yl]-5-fluoro-2-methyl-phenyl}-benzamide]	140
Cc1c(NC(=O)c2ccc(C(C)(C)C)cc2)cccc1-c1ncnc2[nH]c(C3=CCN(S(C)(=O)=O)CC3)cc12 [Example 44, 4-tert-Butyl-N-{3-[6-(1 methanesulfonyl-1,2,3,6-tetrahydro-pyridin-4-yl)-7H-pyrrolo[2,3-d]pyrimidin-4-yl]-2-methyl-phenyl}-benzamide]	17
CN(C)C(=O)N1CC=C(c2cc3c(-c4cccc(N5CCc6cc(C(C)(C)C)ccc6C5=O)c4CO)ncnc3[nH]2)CC1 [Example 45, 4-{4-[3-(6-tert-Butyl-1-oxo-3,4-dihydro-1H-isoquinolin-2-yl)-2-hydroxymethyl-phenyl]-7H-pyrrolo[2,3-d]pyrimidin-6-yl}-3,6-dihydro-2H-pyridine-1-carboxylic acid dimethylamide]	8
CN(C)C(=O)N1CC=C(c2cc3c(-c4cccc(N5CCc6cc(C7CC7)ccc6C5=O)c4CO)ncnc3[nH]2)CC1 [Example 46, 4-{4-[3-(6-Cyclopropyl-1-oxo-3,4-dihydro-1H-isoquinolin-2-yl)-2-hydroxymethyl-phenyl]-7H-pyrrolo[2,3-d]pyrimidin-6-yl}-3,6-dihydro-2H-pyridine-1-carboxylic acid dimethylamide]	17
CN(C)C(=O)N1CC=C(c2cc3c(-c4cccc(N5CCc6cc(C(C)(C)O)ccc6C5=O)c4CO)ncnc3[nH]2)CC1 [Example 47, 4-(4-{2-Hydroxymethyl-3-[6-(1-hydroxy-1-methyl-ethyl)-1-oxo-3,4-dihydro-1H-isoquinolin-2-yl]-phenyl}-7H-pyrrolo[2,3-d]pyrimidin-6-yl)-3,6-dihydro-2H-pyridine-1-carboxylic acid dimethylamide]	2
CC(C)(C)c1ccc(C(=O)Nc2cccc(-c3ncnc4[nH]c(C5=CCOCC5)cc34)c2CO)cc1 [Example 48, 4-tert-Butyl-N-{3-[6-(3,6-dihydro-2H-pyran-4-yl)-7H-pyrrolo[2,3-d]pyrimidin-4-yl]-2-hydroxymethyl-phenyl}-benzamide]	7
Cc1c(NC(=O)c2ccc(C(C)(C)C)cc2)cc(F)cc1-c1ncnc2[nH]c(C3=CCOCC3)cc12 [Example 49, 4-tert-Butyl-N-{3-[6-(3,6-dihydro-2H-pyran-4-yl)-7H-pyrrolo[2,3-d]pyrimidin-4-yl]-5-fluoro-2-methyl-phenyl}-benzamide]	99
Cc1c(NC(=O)c2ccc(N(C)C)cc2)cc(F)cc1-c1ncnc2[nH]c(C3=CCOCC3)cc12 [Example 50, N-{3-[6-(3,6-Dihydro-2H-pyran-4-yl)-7H-pyrrolo[2,3-d]pyrimidin-4-yl]-5-fluoro-2-methyl-phenyl}-4-dimethylamino-benzamide]	47
Cc1c(NC(=O)c2ccc(C(C)(C)C)cc2)cccc1-c1ncnc2[nH]c(C3=CCSCC3)cc12 [Example 51, 4-tert-Butyl-N-{3-[6-(3,6-dihydro-2H-thiopyran-4-yl)-7H-pyrrolo[2,3-d]pyrimidin-4-yl]-2-methyl-phenyl}-benzamide]	47
Cc1c(NC(=O)c2ccc(C(C)(C)C)cc2)cccc1-c1ncnc2[nH]c(C3=CC[S+]([O-])CC3)cc12 (stereo not drawn) [Example 52, 4-tert-Butyl-N-{2-methyl-3-[6-(3,6-dihydro-1-oxido-2H-thiopyran-4-yl)-7H-pyrrolo[2,3-d]pyrimidin-4-yl]-phenyl}-benzamide]	24
Cc1c(NC(=O)c2ccc(C(C)(C)C)cc2)cccc1-c1ncnc2[nH]c(C3=CCS(=O)(=O)CC3)cc12 [Example 53, 4-tert-Butyl-N-{3-[6-(3,6-dihydro-1,1-dioxido-2H-thiopyran-4-yl)-7H-pyrrolo[2,3-d]pyrimidin-4-yl]-2-methyl-phenyl}-benzamide]	64
CC(C)(C)c1ccc(C(=O)Nc2cccc(-c3ncnc4[nH]c(C5=CCC6(CC5)OCCO6)cc34)c2CO)cc1 [Example 54, 4-tert-Butyl-N-{3-[6-(1,4-dioxa-spiro[4.5]dec-7-en-8-yl)-7H-pyrrolo[2,3-d]pyrimidin-4-yl]-2-hydroxymethyl-phenyl}-benzamide]	24
CC(C)(C)c1ccc(C(=O)Nc2cccc(-c3ncnc4[nH]c(C5=CCC(O)CC5)cc34)c2CO)cc1 (stereo not drawn) [Example 55, 4-tert-Butyl-N-{3-[6 (4 hydroxy-cyclohex-1-enyl)-7H-pyrrolo[2,3-d]pyrimidin-4-yl]-2-hydroxymethyl-phenyl}-benzamide]	4
CN(C)C1CC=C(c2cc3c(-c4cccc(NC(=O)c5ccc(C(C)(C)C)cc5)c4CO)ncnc3[nH]2)CC1 (stereo not drawn) [Example 56, 4-tert-Butyl-N-{3-[6 (4 dimethylamino-cyclohex-1-enyl)-7H-pyrrolo[2,3-d]pyrimidin-4-yl]-2-hydroxymethyl-phenyl}-benzamide]	2
Cc1c(NC(=O)N2CC(OC(C)(C)C)C2)cc(F)cc1-c1ncnc2[nH]c(C3=CCN(C(=O)N(C)C)CC3)cc12 [Example 57, 4-(4-{3-[(3-tert-Butoxy-azetidine-1-carbonyl)-amino]-5-fluoro-2-methyl-phenyl}-7H-pyrrolo[2,3-d]pyrimidin-6-yl)-3,6-dihydro-2H-pyridine-1-carboxylic acid dimethylamide]	7
Cc1c(NC(=O)N2Cc3ccc(F)cc3C2)cc(F)cc1-c1ncnc2[nH]c(C3=CCN(C(=O)N(C)C)CC3)cc12 [Example 59, 5-Fluoro-1,3-dihydro-isoindole-2-carboxylic acid {3-[6-(1-dimethylcarbamoyl-1,2,3,6-tetrahydro-pyridin-4-yl)-7H-pyrrolo[2,3-d]pyrimidin-4-yl]-5-fluoro-2-methyl-phenyl}-amide]	3
Cc1c(NC(=O)N2CC(OC(C(F)(F)F)C(F)(F)F)C2)cc(F)cc1-c1ncnc2[nH]c(C3=CCN(C(=O)N(C)C)CC3)cc12 [Example 60, 4-[4-(5-Fluoro-2-methyl-3-{[3-(2,2,2-trifluoro-1-trifluoromethyl-ethoxy)-azetidine-1-carbonyl]-amino}-phenyl)-7H-pyrrolo[2,3-d]pyrimidin-6-yl]-3,6-dihydro-2H-pyridine-1-carboxylic acid dimethylamide]	8
Cc1c(NC(=O)N2CC(OC(C)(C)C)C2)cc(F)cc1-c1ncnc2[nH]c(C3=CCOCC3)cc12 [Example 61, 3-tert-Butoxy-azetidine-1-carboxylic acid {3-[6-(3,6-dihydro-2H-pyran-4-yl)-7H-pyrrolo[2,3-d]pyrimidin-4-yl]-5-fluoro-2-methyl-phenyl}-amide]	6
